Reference: US20250230193A1, “CYCLIC COMPOUND HAVING SELECTIVE KRAS INHIBITORY EFFECT ON HRAS AND NRAS” (CHUGAI SEIYAKU KABUSHIKI KAISHA, priority 2022, published 2025)

Legend:
[1] = molecular target: GDP-bound NRAS wild-type protein (Homo sapiens, UniProt P01111); assay: Binding to NRAS by surface plasmon resonance (SPR), Single Cycle Kinetics; conditions: for NRAS/KRAS (ratio of KD value with respect to NRAS to KD value with respect to KRAS): GDP-bound NRAS wild-type vs GDP-bound KRAS wild-type
Chain of GDP-bound NRAS wild-type protein (P01111 whole entry): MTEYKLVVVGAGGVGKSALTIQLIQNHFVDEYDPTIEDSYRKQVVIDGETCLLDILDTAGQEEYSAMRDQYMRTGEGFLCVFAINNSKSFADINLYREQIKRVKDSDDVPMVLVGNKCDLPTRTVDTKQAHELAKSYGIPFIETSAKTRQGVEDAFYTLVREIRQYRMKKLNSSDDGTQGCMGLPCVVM

[2] = molecular target: GDP-bound HRAS wild-type protein (Homo sapiens, UniProt P01112); assay: Binding to HRAS by surface plasmon resonance (SPR), Single Cycle Kinetics; conditions: for HRAS/KRAS (ratio of KD value with respect to HRAS to KD value with respect to KRAS): GDP-bound HRAS wild-type vs GDP-bound KRAS wild-type
Chain of GDP-bound HRAS wild-type protein (P01112 whole entry): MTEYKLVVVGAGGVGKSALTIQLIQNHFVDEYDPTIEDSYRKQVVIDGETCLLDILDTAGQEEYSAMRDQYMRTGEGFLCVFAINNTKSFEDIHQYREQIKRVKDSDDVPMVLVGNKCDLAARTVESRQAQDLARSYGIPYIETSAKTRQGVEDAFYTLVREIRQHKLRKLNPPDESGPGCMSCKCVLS

[3] = SPR, GDP-bound wild-type proteins

SMILES	NRAS/KRAS (ratio of KD value with respect to GDP-bound NRAS wild-type protein to KD value with respect to KRAS) ([1]; class symbols)	HRAS/KRAS (ratio of KD value with respect to GDP-bound HRAS wild-type protein to KD value with respect to KRAS) ([2]; class symbols)	NRAS/KRAS (ratio of KD value with respect to NRAS to KD value with respect to KRAS) ([1]; SPR)	HRAS/KRAS (ratio of KD value with respect to HRAS to KD value with respect to KRAS) ([2]; SPR)	also measured
CCO[C@@H]1C[C@H]2C(=O)NC3(CC(C)(C)C3)C(=O)N(C)[C@@H](C3CCCCC3)C(=O)N(C)[C@H](C(=O)N(C)C)CC(=O)N(C)[C@@H](COC)C(=O)N[C@@H]([C@@H](C)CC)C(=O)N(C)CC(=O)N(C)[C@H]3C/C=C\CCN(C3=O)[C@@H](Cc3ccc(C(F)(F)F)cc3)C(=O)N(C)CC(=O)N[C@@H](CCc3ccc(Cl)c(Cl)c3)C(=O)N2C1 [PP2661]	AA (a compound having 20 or more is denoted as AA)	A (a compound having 10 or more and less than 20 is denoted as A)			
CCO[C@@H]1C[C@H]2C(=O)NC3(CCC3)C(=O)N(C)[C@@H](C3CCCC3)C(=O)N(C)[C@H](C(=O)N3CCOCC3)CC(=O)N(C)[C@@H](C)C(=O)N[C@@H]([C@@H](C)CC)C(=O)N(C)CC(=O)N(C)[C@H]3CCCCCN(C3=O)[C@@H](Cc3ccc(F)cc3)C(=O)N(C)CC(=O)N[C@@H](CCc3cc(F)c(C(F)(F)F)c(F)c3)C(=O)N2C1 [PP1175]			B (a compound having 3 or more and less than 10 is denoted as B)	B (a compound having 3 or more and less than 10 is denoted as B)	
CCC(CC)[C@H]1C(=O)N(C)[C@H](C(=O)N2CCCCC2)CC(=O)N(C)[C@@H](COC)C(=O)N[C@@H]([C@@H](C)CC)C(=O)N(C)CC(=O)N(C)[C@H]2C/C=C\CCN(C2=O)[C@@H](Cc2ccc(C(F)(F)F)cc2)C(=O)N(C)CC(=O)N[C@@H](CCc2ccc(Cl)c(Cl)c2)C(=O)N2C[C@H](OC(C)C)C[C@H]2C(=O)NC2(CC(C)(C)C2)C(=O)N1C [PP2612]	AA (a compound having 20 or more is denoted as AA)	A (a compound having 10 or more and less than 20 is denoted as A)			
CCO[C@@H]1C[C@H]2C(=O)NC3(CCC3)C(=O)N(C)[C@@H](C3CCCC3)C(=O)N(C)[C@H](C(=O)N3CCOCC3)CC(=O)N(C)[C@@H](CC(C)C)C(=O)N[C@@H]([C@@H](C)CC)C(=O)N(C)CC(=O)N(C)[C@H]3C[C@@H](C)CCN(C3=O)[C@@H](Cc3ccc(C(F)(F)F)cc3)C(=O)N(C)CC(=O)N[C@@H](CCc3cc(F)c(C(F)(F)F)c(F)c3)C(=O)N2C1 [PP1025]			C (A compound having a KD ratio of 0.1 or more and less than 3 is denoted as C)	B (a compound having 3 or more and less than 10 is denoted as B)	
CCC(CC)[C@H]1C(=O)N(C)[C@H](C(=O)N(C)C)CC(=O)N(C)[C@H]2CCC/C=C/c3ccc(cc3)C[C@@H](C(=O)N(C)CC(=O)N[C@@H](CCc3cc(F)c(C(F)(F)F)c(F)c3)C(=O)N3C[C@H](OC(C)C)C[C@H]3C(=O)NC3(CC(C)(C)C3)C(=O)N1C)N1CC/C=C\C[C@@H](C1=O)N(C)C(=O)CN(C)C(=O)[C@H]([C@@H](C)CC)NC2=O [PP2594]	A (a compound having 10 or more and less than 20 is denoted as A)	A (a compound having 10 or more and less than 20 is denoted as A)			
CCO[C@@H]1C[C@H]2C(=O)NC3(CCC3)C(=O)N(C)[C@@H](C3CCCC3)C(=O)N(CC)[C@H](C(=O)N3CCOCC3)CC(=O)N(C)[C@@H](CCc3ccccc3)C(=O)N[C@@H]([C@@H](C)CC)C(=O)N(C)CC(=O)N(C)[C@H]3CCCCCN(C3=O)[C@@H](Cc3ccc(C(F)(F)F)cc3)C(=O)N(C)CC(=O)N[C@@H](CCc3cc(F)c(C(F)(F)F)c(F)c3)C(=O)N2C1 [PP0953]			A (a compound having 10 or more and less than 20 is denoted as A)	A (a compound having 10 or more and less than 20 is denoted as A)	
CCC[C@H]1C(=O)N[C@@H]([C@@H](C)CC)C(=O)N(C)CC(=O)N(C)[C@H]2C/C=C\CCN(C2=O)[C@@H](Cc2ccc(C)cc2)C(=O)N(C)CC(=O)N[C@@H](CCc2ccc(C(F)(F)F)c(OC)c2)C(=O)N2CC3(CC3)C[C@H]2C(=O)NC2(CC(C)(C)C2)C(=O)N(C)[C@@H](CC(C)(C)C)C(=O)N(C)[C@H](C(=O)N(C)C)CC(=O)N1C [PP3009]					NRAS/KRAS (ratio of KD value with respect to GDP-bound NRAS wild-type protein to KD value with respect to KRAS) [1, 3]: A (a compound having 10 or more and less than 20 is denoted as A); HRAS/KRAS (ratio of KD value with respect to GDP-bound HRAS wild-type protein to KD value with respect to KRAS) [2, 3]: A (a compound having 10 or more and less than 20 is denoted as A)
